The values below come from US9168247B2, “Beta carboline derivatives useful in the treatment of proliferative disorders” (FACULTES UNIVERSITAIRES NOTRE DAME DE LA PAIX, priority 2010, dated 2015).

One test deals with T98G glioma cells. Description: MTT test, overall cell growth, T98G. The class given is cell-based, human. The settings on record: 72 hours of incubation. In outline:
(§1)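 Glioma (Hs683, T98G, U373) and oesophageal (OE21, OE33) lines seeded at 5,000–8,000 cells/well, treated 24 h later with compound at 1×10^−8 to 1×10^−4 M for 72 h at 37 °C, in sestuplicate.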

In a further test the test system is Hs683 glioma cells. Description: MTT test, overall cell growth, Hs683. It is filed as cell-based, human. The gist of the method: as §1
A further test relates to U373 cells. Description: Cellular imaging (videomicroscopy) of cultured U373 cells: antiproliferative class and global growth ratio. The class given is cell-based, human. Further details: key to Anti proliferative class / anti-proliferative class-GGR: class I: actually cytostatic for 3 days (<10% of cell death at the 3rd day); class II: cyctostatic but becomes cytotoxic with <10% cell death on the 2nd day, and >20% of cell death on the 3rd day; class III: cytostatic but rapidly becomes cytotoxic with <10% cell death on the 1st day, >20% of cell death on the 2nd day and >50% of cell death on the 3rd day; class IV: cytotoxic (>50% of cell death on the first day). The settings on record: for global growth ratio (GGR): GG treated cells/GG control cells, 72 h after drug addition, drug at its IC50 (MTT-test determined); for anti-proliferative class-GGR: Table 4; for Anti proliferative class: cellular imaging of cultured U373 cells over three consecutive days. The gist of the method:
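U373-MG glioma cells seeded at low density, exposed or not to compound […], filmed by videomicroscopy for 72 h, in quadruplicate. Cells counted on first (0 h) and last (72 h) images; GGR = final/initial count, reported as GGR treated/GGR control.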

Test [1] relates to OE21 oesophageal cancer cells. Put plainly: MTT test, overall cell growth, OE21. The class given is cell-based, human. The gist of the method:
as §1

Test [2] concerns human cancer cell lines (U373, T98G, Hs683, OE21, OE33). Put plainly: MTT test, mean over the cancer cell lines. It is filed as cell-based. The gist of the method:
as §1

In test [3] the test system is OE33 oesophageal cancer cells. Description: MTT test, overall cell growth, OE33. The class given is cell-based, human. In outline:
as §1

Where [4] appears, read: Homo sapiens, Hs 683, 72 hours of incubation.
Setting [5] is: Homo sapiens, OE21, 72 hours of incubation.
Setting [6] is: Homo sapiens, Table 4, mean over cell lines, read-out: IC50 μM growth inhibition (MTT test).
Setting [7] is: Homo sapiens, mean over the cancer cell lines, MTT test, read-out: IC50 Mean ± SEM.
Setting [8] is: Homo sapiens, OE33, 72 hours of incubation.
Where [9] appears, read: Table 4, mean over cell lines, read-out: IC50 μM growth inhibition (MTT test).
[10] abbreviates: mean over the cancer cell lines, MTT test, read-out: IC50 Mean ± SEM.

The structures appear in SMILES notation. Where two headings read alike, the source gives them in different places.

Take `Cc1nccc2c3ccc(OCc4ccccc4)cc3n(Cc3ccccc3)c12` [CV9/JR84, 1-methyl-7-benzyloxy-9-benzyl-β-carboline]: the IC50 with T98G glioma cells (Homo sapiens, T98G) came to 36 ± 2 µM; with Hs683 glioma cells (setting [4]), 33 ± 1 µM; in test [1] (setting [5]), 28 ± 3 µM; in test [2] (setting [6]), 31 µM; in test [2] (setting [7]) it was 31 ± 4 µM; in test [3] (setting [8]) it was 40 ± 4 µM. The “global growth ratio (GGR)” value with U373 cells is given as 0.3. Moreover, in the test with U373 cells, the “anti-proliferative class-GGR” value is on record as “(II)”. Besides, the Anti proliferative class result in the test with U373 cells is listed as “II”.

As for `Cc1c2c(cc[n+]1Cc1ccccc1)c1ccc(OCc3ccccc3)cc1n2Cc1ccccc1.[Br-]` [CV21/JR95, 1-methyl-2-benzyl-7-benzyloxy-9-benzyl-β-carbolin-2-ium bromide], the IC50 with T98G glioma cells (Homo sapiens, T98G) is 0.48 ± 0.02 µM; with Hs683 glioma cells (setting [4]), 0.49 ± 0.05 µM; in test [1] (setting [5]), 1.3 ± 0.2 µM; in test [2] (setting [6]), 0.7 µM; in test [2] (setting [7]), 0.7 ± 0.2 µM; in test [3] (setting [8]) it was 0.7 ± 0.1 µM. Also, the “global growth ratio (GGR)” value with U373 cells worked out at 0.4. The “anti-proliferative class-GGR” value in the test on U373 cells was “(I) (class I: actually cytostatic for 3 days (<10% of cell death at the 3rd day))”. Besides, in the test on U373 cells, the Anti proliferative class entry is “I (class I: actually cytostatic for 3 days (<10% of cell death at the 3rd day))”.

For `Cc1nccc2c1[nH]c1cc(OCc3cccnc3)ccc12` [JR212], the IC50 turned out to be 29 ± 2 µM in the test with T98G glioma cells; 30 ± 3 µM with Hs683 glioma cells (72 hours of incubation); 28 ± 2 µM in test [1] (72 hours of incubation); 29 µM in test [2] (setting [9]); 29 ± 1 µM in test [2] (setting [10]); 31 ± 2 µM in test [3] (72 hours of incubation). Also, the “global growth ratio (GGR)” value with U373 cells is 0.3. For the same molecule, the “anti-proliferative class-GGR” value in the test with U373 cells is listed as “(I) (class I: actually cytostatic for 3 days (<10% of cell death at the 3rd day))”. For the same molecule, the Anti proliferative class entry with U373 cells was “I (class I: actually cytostatic for 3 days (<10% of cell death at the 3rd day))”.

As for `COCCOc1ccc2c(c1)[nH]c1c(C)nccc12` [JR220], the IC50 in the test on T98G glioma cells came to 61 ± 7 µM; in the test with Hs683 glioma cells (72 hours of incubation), 53 ± 6 µM; in test [1] (72 hours of incubation) it was 53 ± 4 µM; in test [2] (setting [9]) it was 60 µM; in test [2] (setting [10]), 60 ± 3 µM; in test [3] (72 hours of incubation), 66 ± 3 µM. The “global growth ratio (GGR)” value with U373 cells is 0.2. Besides, the “anti-proliferative class-GGR” value in the test with U373 cells is given as “(I) (class I: actually cytostatic for 3 days (<10% of cell death at the 3rd day))”. For the same molecule, the Anti proliferative class result with U373 cells was “I (class I: actually cytostatic for 3 days (<10% of cell death at the 3rd day))”.
